Measurements: PubChem BioAssay AID180 (DTP/NCI, 2004)
Several values for one entry are separate records, joined by “and”; a condition that tells them apart may be missing. Equal entries are not always repeated.

Test system: BDF1 mice, Adenocarcinoma 755 s.c., tumor weight T/C
Test: NCI In Vivo Anticancer Drug Screen. Data for tumor model Adenocarcinoma 755 (subcutaneous) in B6D2F1 (BDF1) mice
Conditions: endpoint: mean tumor weight, higher = larger tumour
Outline: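 Compound activity was tested in mice carrying transplanted tumors. Survival or tumor size was measured, and each value is the treated-group measurement divided by that of the vehicle-treated control group (T/C).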

[1] = dose: 12.5 mg/kg/injection, schedule: Q01DX011 (ip), vehicle: methylcellulose (MC)
[2] = dose: 25.0 mg/kg/injection, schedule: Q01DX011 (ip), vehicle: methylcellulose (MC)
[3] = dose: 25.0 mg/kg/injection, schedule: Q01DX011 (ip), vehicle: other
[4] = dose: 100.0 mg/kg/injection, schedule: Q01DX011 (ip), vehicle: other
[5] = dose: 15.0 mg/kg/injection, schedule: Q01DX011 (ip), vehicle: methylcellulose (MC)
[6] = dose: 31.0 mg/kg/injection, schedule: Q01DX011 (ip), vehicle: methylcellulose (MC)
[7] = dose: 50.0 mg/kg/injection, schedule: Q01DX011 (ip), vehicle: carboxymethylcellulose (CMC)
[8] = dose: 30.0 mg/kg/injection, schedule: Q01DX011 (ip), vehicle: carboxymethylcellulose (CMC)
[9] = dose: 60.0 mg/kg/injection, schedule: Q01DX011 (ip), vehicle: carboxymethylcellulose (CMC)
[10] = dose: 120.0 mg/kg/injection, schedule: Q01DX011 (ip), vehicle: carboxymethylcellulose (CMC)
[11] = dose: 240.0 mg/kg/injection, schedule: Q01DX011 (ip), vehicle: carboxymethylcellulose (CMC)
[12] = dose: 200.0 mg/kg/injection, schedule: Q01DX011 (ip), vehicle: other

In the case of `c1ccc2c(c1)ccc1cc3c(ccc4ccccc43)cc12`, the T/C [1] was 24 % of control, the T/C [2] was 44 % of control and the T/C [3] was 60 % of control. For the same compound, the T/C (dose: 50.0 mg/kg/injection, schedule: Q01DX011 (ip), vehicle: other) was 42 % of control, the T/C [4] was 36 % of control and the T/C (dose: 400.0 mg/kg/injection, schedule: Q01DX011 (ip), vehicle: methylcellulose (MC)) was 24 % of control and 25 % of control. The T/C (dose: 600.0 mg/kg/injection, schedule: Q01DX011 (ip), vehicle: methylcellulose (MC)) was 31 % of control and the T/C (dose: 600.0 mg/kg/injection, schedule: Q01DX011 (ip), vehicle: other) was 12 % of control.

For `CSc1ncc(Br)c(SCc2ccc(Cl)cc2Cl)n1`, the T/C [5] was 69 % of control, the T/C [6] was 108 % of control and the T/C (dose: 250.0 mg/kg/injection, schedule: Q01DX011 (ip), vehicle: methylcellulose (MC)) was 60 % of control.

In the case of `CCCCNC(=O)c1n[se]nc1NC(N)=O`, the T/C (dose: 4.0 mg/kg/injection, schedule: Q01DX011 (ip), vehicle: carboxymethylcellulose (CMC)) was 94 % of control, the T/C (dose: 8.0 mg/kg/injection, schedule: Q01DX011 (ip), vehicle: carboxymethylcellulose (CMC)) was 91 % of control and the T/C (dose: 16.0 mg/kg/injection, schedule: Q01DX011 (ip), vehicle: carboxymethylcellulose (CMC)) was 61 % of control. The T/C (dose: 37.5 mg/kg/injection, schedule: Q01DX011 (ip), vehicle: carboxymethylcellulose (CMC)) was 166 % of control and the T/C [7] was 119 % of control.

For `Nc1ncnc(F)c1N`, the T/C (dose: 15.5 mg/kg/injection, schedule: Q01DX011 (ip), vehicle: carboxymethylcellulose (CMC)) was 106 % of control, the T/C [8] was 96 % of control and the T/C [9] was 123 % of control. The T/C [10] was 89 % of control.

With `CC(=O)OCC1OC(n2c(Br)nc3c(=O)[nH]c(N)nc32)C(OC(C)=O)C1OC(C)=O` (stereo not given) the T/C [8] was 95 % of control, the T/C [9] was 119 % of control and the T/C [10] was 90 % of control. The T/C [11] was 82 % of control.

For `Nc1nc(O)c(Br)c(=O)[nH]1`, the T/C [5] was 86 % of control, the T/C [6] was 69 % of control and the T/C (dose: 62.0 mg/kg/injection, schedule: Q01DX011 (ip), vehicle: methylcellulose (MC)) was 68 % of control.

With `Nc1ncnc2c1ncn2C1CCCCC1` the T/C (dose: 34.0 mg/kg/injection, schedule: Q01DX011 (oral), vehicle: carboxymethylcellulose (CMC)) was 75 % of control, the T/C (dose: 68.0 mg/kg/injection, schedule: Q01DX011 (oral), vehicle: carboxymethylcellulose (CMC)) was 120 % of control and the T/C (dose: 136.0 mg/kg/injection, schedule: Q01DX011 (oral), vehicle: carboxymethylcellulose (CMC)) was 78 % of control. For the same compound, the T/C (dose: 272.0 mg/kg/injection, schedule: Q01DX011 (oral), vehicle: carboxymethylcellulose (CMC)) was 106 % of control.

`CC(=O)OC1C(CO)OC(n2cnc3c(=S)nc[nH]c32)C1OC(C)=O` (stereo not given) was tested, and the T/C (dose: 3.75 mg/kg/injection, schedule: Q01DX011 (ip), vehicle: carboxymethylcellulose (CMC)) was 38 % of control, the T/C (dose: 7.5 mg/kg/injection, schedule: Q01DX011 (ip), vehicle: carboxymethylcellulose (CMC)) was 10 % of control and the T/C (dose: 15.0 mg/kg/injection, schedule: Q01DX011 (ip), vehicle: carboxymethylcellulose (CMC)) was 5 % of control. The T/C [8] was 5 % of control and 7 % of control, the T/C [9] was 7 % of control and the T/C [10] was 6 % of control.

`O=c1[nH]cnc2nc(S(=O)(=O)F)[nH]c12` was tested, and the T/C [9] was 117 % of control, the T/C [10] was 121 % of control and the T/C [11] was 115 % of control.

`CCOc1nc(N)nc2n[nH]nc12` was tested, and the T/C (dose: 75.0 mg/kg/injection, schedule: Q01DX011 (ip), vehicle: carboxymethylcellulose (CMC)) was 67 % of control and the T/C (dose: 150.0 mg/kg/injection, schedule: Q01DX011 (ip), vehicle: carboxymethylcellulose (CMC)) was 9 % of control.

For `C[C@]12CCC(=O)C=C1CC[C@@H]1[C@@H]2[C@@H](O)C[C@@]2(C)[C@H]1CC[C@]2(O)C(=O)COC(=O)CCC(=O)O`, the T/C (dose: 700.0 mg/kg/injection, schedule: Q01DX011 (sc), vehicle: steriod suspending solution) was 10 % of control.

`Oc1ccc2ccccc2c1N=Nc1ccc(Cl)cc1` was tested, and the T/C (dose: 3.1 mg/kg/injection, schedule: Q01DX011 (ip), vehicle: other) was 15 % of control, the T/C (dose: 6.25 mg/kg/injection, schedule: Q01DX011 (ip), vehicle: other) was 108 % of control and the T/C (dose: 12.5 mg/kg/injection, schedule: Q01DX011 (ip), vehicle: other) was 91 % of control and 84 % of control. The T/C [3] was 56 % of control and 62 % of control, the T/C [7] was 50 % of control and the T/C (dose: 100.0 mg/kg/injection, schedule: Q01DX011 (ip), vehicle: carboxymethylcellulose (CMC)) was 40 % of control. The T/C [4] was 24 % of control and 49 % of control, the T/C (dose: 100.0 mg/kg/injection, schedule: Q01DX011 (ip), vehicle: saline) was 81 % of control and the T/C (dose: 200.0 mg/kg/injection, schedule: Q01DX011 (ip), vehicle: carboxymethylcellulose (CMC)) was 34 % of control. For the same compound, the T/C [12] was 25 % of control, the T/C (dose: 200.0 mg/kg/injection, schedule: Q01DX011 (ip), vehicle: saline) was 38 % of control and the T/C (dose: 400.0 mg/kg/injection, schedule: Q01DX011 (ip), vehicle: carboxymethylcellulose (CMC)) was 36 % of control. The T/C (dose: 400.0 mg/kg/injection, schedule: Q01DX011 (ip), vehicle: other) was 14 % of control and 24 % of control, the T/C (dose: 400.0 mg/kg/injection, schedule: Q01DX011 (ip), vehicle: saline) was 28 % of control and the T/C (dose: 800.0 mg/kg/injection, schedule: Q01DX011 (ip), vehicle: carboxymethylcellulose (CMC)) was 16 % of control. The T/C (dose: 800.0 mg/kg/injection, schedule: Q01DX011 (ip), vehicle: other) was 6 % of control and the T/C (dose: 1200.0 mg/kg/injection, schedule: Q01DX011 (ip), vehicle: other) was 9 % of control.

`COc1cc2c(c(OC)c1OC)-c1ccc(N)c(=O)cc1[C@@H](NC(C)=O)CC2` was tested, and the T/C (dose: 0.5 mg/kg/injection, schedule: Q01DX011 (ip), vehicle: saline) was 98 % of control, the T/C (dose: 2.0 mg/kg/injection, schedule: Q01DX011 (ip), vehicle: saline) was 32 % of control and 47 % of control and the T/C (dose: 4.0 mg/kg/injection, schedule: Q01DX011 (ip), vehicle: saline) was 15 % of control and 37 % of control.

For `O=C(Nc1ccc(C2=NCCN2)cc1)c1ccc(C(=O)Nc2ccc(C3=NCCN3)cc2)cc1`, the T/C (dose: 3.3 mg/kg/injection, schedule: Q01DX011 (ip), vehicle: methylcellulose (MC)) was 122 % of control and the T/C (dose: 6.5 mg/kg/injection, schedule: Q01DX011 (ip), vehicle: methylcellulose (MC)) was 113 % of control.

With `CO[C@@H]1[C@@H](OC2OC(C)C(OC3CC(C)(O)C(OC(=O)CC(C)C)C(C)O3)C(N(C)C)C2O)[C@@H](CC=O)C[C@@H](C)C(=O)/C=C/C2O[C@H]2C[C@@H](C)OC(=O)C[C@H]1OC(C)=O` (stereo not given in full) the T/C [12] was 66 % of control, the T/C (dose: 250.0 mg/kg/injection, schedule: Q01DX011 (ip), vehicle: other) was 60 % of control and 63 % of control and the T/C (dose: 300.0 mg/kg/injection, schedule: Q01DX011 (ip), vehicle: other) was 24 % of control and 33 % of control. For the same compound, the T/C (dose: 350.0 mg/kg/injection, schedule: Q01DX011 (ip), vehicle: other) was 45 % of control.

With `CS(=O)(=O)OCCC(=O)NCNC(=O)CCOS(C)(=O)=O` the T/C (dose: 7.0 mg/kg/injection, schedule: Q01DX011 (ip), vehicle: carboxymethylcellulose (CMC)) was 77 % of control, the T/C [1] was 79 % of control and the T/C (dose: 14.0 mg/kg/injection, schedule: Q01DX011 (ip), vehicle: carboxymethylcellulose (CMC)) was 42 % of control. The T/C [2] was 39 % of control, the T/C (dose: 28.0 mg/kg/injection, schedule: Q01DX011 (ip), vehicle: carboxymethylcellulose (CMC)) was 4 % of control and the T/C (dose: 28.0 mg/kg/injection, schedule: Q01DX011 (ip), vehicle: methylcellulose (MC)) was 5 % of control. The T/C (dose: 50.0 mg/kg/injection, schedule: Q01DX011 (ip), vehicle: methylcellulose (MC)) was 3 % of control.

`C=CC(O)CN1CC1=C` (stereo not given) (tested in a mixture with another compound) was tested, and the T/C (dose: 1.9 mg/kg/injection, schedule: Q01DX011 (ip), vehicle: methylcellulose (MC)) was 95 % of control, the T/C (dose: 3.75 mg/kg/injection, schedule: Q01DX011 (ip), vehicle: methylcellulose (MC)) was 121 % of control and the T/C (dose: 7.5 mg/kg/injection, schedule: Q01DX011 (ip), vehicle: methylcellulose (MC)) was 106 % of control. The T/C [5] was 49 % of control.

In the case of `O=P(N1CCCCCC1)(N1CC1)N1CC1`, the T/C (dose: 1.0 mg/kg/injection, schedule: Q01DX011 (ip), vehicle: methylcellulose (MC)) was 95 % of control, the T/C (dose: 2.0 mg/kg/injection, schedule: Q01DX011 (ip), vehicle: methylcellulose (MC)) was 68 % of control and the T/C (dose: 4.0 mg/kg/injection, schedule: Q01DX011 (ip), vehicle: methylcellulose (MC)) was 48 % of control. The T/C (dose: 8.0 mg/kg/injection, schedule: Q01DX011 (ip), vehicle: methylcellulose (MC)) was 28 % of control.

`O=[N+]([O-])c1cc([N+](=O)[O-])c(NN(c2ccccc2)c2ccccc2)c([N+](=O)[O-])c1` was tested, and the T/C [3] was 86 % of control.
